Results reported in patent US4774345A, “Amine-complexed zinc salts of organic diacids” (Engelhard Corporation, priority 1986, dated 1988).
Entries after “also recorded” stand apart in the source; their conditions may differ. Where two headings read alike, the source gives them in different places.

Tests used:
Primary skin irritation = type: in vivo; conditions: 0.5 g in Saline Paste
[1] = Electrochemical testing (Tafel Plot), corrosion current, corrosion potential and pH of simulated acid rain saturated with pigment
Draize eye irritation = type: in vivo; conditions: 100 mg
[2] = Salt spray exposure, Example VI (ASTM B117-73; alkyd and latex primers); conditions: for Salt spray durability, in words: FIG. 3, alkyd formulation
[3] = Salt spray exposure, Example V (alkyd and latex primers)
Acute oral toxicity = type: in vivo
[4] = water
[5] = in vivo; cited from earlier work
[6] = Table III, simulated acid rain electrolyte pH about 4.2, saturated with pigment

**Q.** For NCCN.O=C([O-])CCCCC(=O)[O-].[Zn+2] [Compound 3, Zinc Adipate Ethylenediamine], which “Skin Irritation, rating in words” value (Primary skin irritation) is on record?
**A.** minimally irritating

**Q.** And the “Corrosion Curr. (Icorr)” value [1, 6]?
**A.** 78 microamps

**Q.** What about the “Eye Irritation, rating in words” value (Draize eye irritation) of the same compound?
**A.** moderately-irritating

**Q.** And the “Salt spray durability, in words” value [2]?
**A.** superior to "Zinc Yellow" (zinc chromate) in salt spray durability

**Q.** Which “Salt spray durability, in words” value [2] does the source give for CC(N)CN.O=C([O-])CCCCC(=O)[O-].[Zn+2] [Compound 4, Zinc Adipate Propylenediamine] here?
**A.** superior to "Zinc Yellow" (zinc chromate) in salt spray durability

**Q.** Which results are given for NCCN.O=C([O-])CCCCCCCC(=O)[O-].[Zn+2] [Compound 5, Zinc Azelate Ethylenediamine]?
**A.** pH ([1]; Table III): 6.78; Corrosion Pot. (Ecorr) ([1]; Table III, against saturated calomel electrode): -667 millivolts; Corrosion Curr. (Icorr) [1, 6]: 82 microamps; Effect of kaolin on salt spray performance ([3]; distended on kaolin): anomolously reduced the performance

**Q.** For NCCN.O=C([O-])CCCCCCCCC(=O)[O-].[Zn+2] [Compound 6, Zinc Sebacate Ethylenediamine], which “Skin Irritation, rating in words” value (Primary skin irritation) is on record?
**A.** minimally irritating

**Q.** What about the “Corrosion Curr. (Icorr)” value [1] of the same compound?
**A.** 170 microamps

**Q.** And the “Corrosion Pot. (Ecorr)” value [1]?
**A.** -462 millivolts

**Q.** And the pH [1]?
**A.** 6.8

**Q.** And the “Eye Irritation, rating in words” value (Draize eye irritation)?
**A.** severely irritating

**Q.** For O=C([O-])CCCCCCCCCCC(=O)[O-].OCCN(CCO)CCO.[Zn+2] [Compound 10, Zinc Dibasate Triethanolamine], which “Corrosion Curr. (Icorr)” value [1] is on record?
**A.** 93 microamps

**Q.** And the “Corrosion Pot. (Ecorr)” value [1]?
**A.** -580 millivolts

**Q.** And the pH [1]?
**A.** 7.2

**Q.** Which results are given for NCCN.O=C([O-])CCCCCCCCCCC(=O)[O-].[Zn+2] [Compound 11, Zinc Dodecanedioate Ethylenediamine]?
**A.** Corrosion Curr. (Icorr) [1, 6]: 130 microamps; Salt spray durability, in words [2]: superior to "Zinc Yellow" (zinc chromate) in salt spray durability

**Q.** Which “Corrosion Curr. (Icorr)” value [1] does the source give for CCNCC.O=C([O-])CCCCCCCCCCC(=O)[O-].[Zn+2] [Compound 12, Zinc Dodecanedioate Diethylamine] here?
**A.** 197 microamps

**Q.** Which “Skin Irritation, rating in words” value (Primary skin irritation) does the source give for NCCN.O=C([O-])c1ccccc1C(=O)[O-].[Zn+2] [Compound 17, Zinc Phthalate Ethylenediamine] here?
**A.** non-irritating

**Q.** And the “Corrosion Curr. (Icorr)” value [1]?
**A.** 83 microamps

**Q.** Which “Salt spray durability, in words” value [2] does the source give for NCCN.O=C([O-])c1cccc(C(=O)[O-])c1.[Zn+2] [Compound 18, Zinc Isophthalate Ethylenediamine] here?
**A.** superior to "Zinc Yellow" (zinc chromate) in salt spray durability

**Q.** With Zinc Dibasate Diethylamine [Compound 9] as the compound, how does the “Corrosion Pot. (Ecorr)” value [1] read?
**A.** -570 millivolts

**Q.** And the pH [1]?
**A.** 7.0

**Q.** What about the “Eye Irritation, rating in words” value (Draize eye irritation) of the same compound?
**A.** mildly irritating

**Q.** And the “Acute oral toxicity, mortality” value (Acute oral toxicity; Oral (5 g/kg in Corn Oil))?
**A.** 0%

**Q.** Which “Corrosion Curr. (Icorr)” value [1] does the source give for “Zinc Dibasate Dimethylamine [Compound 21]” here?
**A.** 82 microamps

**Q.** And the “Corrosion Pot. (Ecorr)” value [1]?
**A.** -610 millivolts

**Q.** Which results are given for Zinc Dibasate Piperidine [Compound 24]?
**A.** Corrosion Curr. (Icorr) [1]: 40 microamps; Corrosion Pot. (Ecorr) [1]: -610 millivolts

**Q.** With “Zinc Dibasate Propylenediamine [Compound 8]” as the compound, how does the “Solubility Description” value [4] read?
**A.** SS (key: PINS: practically insoluble (<.1 g/100 cc H2 O); SS: slightly soluble (.1 to 1 g/100 cc H2 O); MS: moderately soluble)

**Q.** For “Zinc Sulfonyldiphenolate Ethylenediamine [Compound 15]”, which “Skin Irritation, rating in words” value (Primary skin irritation) is on record?
**A.** non-irritating

**Q.** What about the “Corrosion Curr. (Icorr)” value [1] of the same compound?
**A.** 170 microamps

**Q.** What about the “Corrosion Pot. (Ecorr)” value [1] of the same compound?
**A.** -592 millivolts

**Q.** What about the pH [1] of the same compound?
**A.** 7.67

**Q.** And the “Eye Irritation, rating in words” value (Draize eye irritation)?
**A.** severely irritating

**Q.** Which “Corrosion Curr. (Icorr)” value [1] does the source give for “Zinc Thiodiphenolate Ethylenediamine [Compound 14]” here?
**A.** 52.5 microamps

**Q.** What about the “Corrosion Pot. (Ecorr)” value [1] of the same compound?
**A.** -570 millivolts

**Q.** And the pH [1]?
**A.** 8.60

**Q.** What about the “Eye Irritation, rating in words” value (Draize eye irritation) of the same compound?
**A.** extremely irritating

**Q.** And the “Effect of kaolin on salt spray performance” value [3]?
**A.** kaolin likewise enhanced the performance

**Q.** And the “Hours to failure in salt spray (performance level)” value [3]?
**A.** approximately 780 hours

**Q.** And the “Toxicity characteristics (overall statement)” value (Acute oral toxicity; acute oral, skin and eye tests of Table VIII)?
**A.** unacceptable toxicity characteristics

**Q.** What about the “Paint panel durability in salt spray, in words” value [2] of the same compound?
**A.** slightly less than half the durability achieved by the commercial "Zinc Yellow" (zinc chromate) corrosion-inhibitor formulation; also recorded: performed markedly better than commercially available corrosion inhibitors, such as Nalzin, Halox, Busan, "Moly White" and zinc phosphate

**Q.** Which “Corrosion Curr. (Icorr)” value [1] does the source give for “Zinc Thiodiphenolate Propylenediamine [Compound 20]” here?
**A.** 46 microamps

**Q.** What about the “Corrosion Pot. (Ecorr)” value [1] of the same compound?
**A.** -560 millivolts

**Q.** And the pH [1]?
**A.** 8.18

**Q.** Which TDLo [5] does the source give for zinc chromate here?
**A.** 12 mg/kg
